In US20260083708A1, “IL-17 MODULATORS AND USES THEREOF” (NNOCARE PHARMA INC., priority 2024, published 2026) one finds IC50 data, which are given here for twelve compounds.

The target in assay [1] is T1, IL-17AA and IL-17RA (Homo sapiens, UniProt Q16552).
T1 construct: purchased Sino Biological 12047-H07B (IL-17AA); 10895-H02H (IL-17RA)
T1 sequence (Q16552 24-155): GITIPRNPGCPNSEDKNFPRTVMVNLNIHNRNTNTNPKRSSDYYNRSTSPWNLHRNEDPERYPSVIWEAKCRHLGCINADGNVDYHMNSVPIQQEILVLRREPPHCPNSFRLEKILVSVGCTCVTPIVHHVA
The assay is described as follows: Competitive inhibition of human IL-17AA and IL-17RA binding (HTRF). As to conditions: recombinant IL-17AA (His-tag) and IL-17RA (hFc-tag); read-out: IC50 for Inhibiting IL-AA/IL-RA Binding. As to the method: Example 42. Competitive Inhibition of Human IL-17AA and IL-17RA Binding
Recombinant IL-17AA (His-tag, Catalog Number 12047-H07B) and IL-17RA (hFc-tag, Catalog Number 10895-H02H) were purchased from Sino Biological. In the experiment, 10 μL of IL-17AA (1 nM) or IL-17RA (1 nM) was added to 10 μL of anti-6His-Tb (0.4 nM, Revvity, Catalog Number 61HISTLF) or anti-human IgG-d2 (1 μg/mL, anti-human IgG-d2, Revvity, Catalog Number 61HFCDAF), respectively and incubated at room temperature for 1 hour. Compounds were serially diluted starting from 10 μM. 5 μL of each compound solution was incubated with 5 μL of a mixture of IL-17AA and anti-6His-Tb at room temperature for 2 hours. After pre-incubation, to which was added 10 μL of a mixture of IL-17RA and anti-human IgG-d2, and incubation was continued for additional 20 minutes. Subsequently, a microplate reader (Envision, PerkinElmer) was used to detect fluorescence intensity at 615 nm and 665 nm, and the ratio of intensity thereof indicates the degree of IL-17AA and IL-17RA interaction. The ratio of intensity in the absence of tested compound was the highest value of binding between IL-17AA and IL-17RA, and the ratio of intensity in the absence of IL-17AA was the lowest value.
(§1) Therefore, the percentage of inhibition of tested compound was calculated as
Experimental results were analyzed using XLfit (IDBS) for 4-parameter nonlinear fitting analysis, to provide the IC50 value for each tested compound (Table 1).
On the technique in general: In TR-FRET formats the signal depends on donor and acceptor labels being close together.

In assay [2] the test system is IL-17AA-induced IL-17 signaling pathway. The assay is described as follows: Inhibition of IL-17AA-induced IL-17 signaling pathway in HEK-Blue IL-17 reporter cells (SEAP). Format: cell-based. As to conditions: Homo sapiens; HEK-Blue IL-17 cells, IL-17AA 2.5 ng/mL, 20 hours; read-out: IC50 for Inhibiting IL-AA Signaling.
Description: Example 43. Inhibition of IL-17AA-Induced IL-17 Signaling Pathway
(§2) Interleukin-17 (IL-17) reporter cell line (HEK-Blue IL-17, InvivoGen, Catalog Number hkb-i117) is created by genetically engineering human IL-17RA/IL-17RC heterodimeric receptor and downstream adapter protein ACT1 into human embryonic kidney 293 cells (HEK293). These cells also express secreted embryonic alkaline phosphatase (SEAP) reporter gene induced by NF-κB and AP-1. Therefore, IL-17AA can activate NF-κB and AP-1 signaling pathways inside the cells by binding to IL-17RA/RC on cell membrane, leading to expression of SEAP protein. After a colorimetric reaction between SEAP protein and Quanti-Blue solution, the absorbance at 620 nm is measured using a microplate reader (BioTek H1M, Agilent, Catalog Number SH1M-SN) to determine IL-17AA-activated signaling pathway.
(§3) In the experiment, HEK-Blue IL-17 cells were cultured at 37° C. under 5% CO2 conditions using the recommended medium from InvivoGen's instruction. Compounds were serially diluted starting from 10 μM. 4 μL of each compound solution was added to 32 μL of cells (10,000 cells) at 37° C. for 1 hour. After pre-incubation, 4 μL of IL-17AA with a final concentration of 2.5 ng/mL (Sino Biological, Catalog Number 12047-HNAS) was added to the cells, and incubation was continued for additional 20 hours. After incubation, 5 μL of cell culture supernatant was added to 45 μL of Quanti-Blue for the colorimetric reaction. The group without tested compound had the highest absorbance at 620 nm, and the group without IL-17AA had the lowest absorbance at 620 nm.
as §1
(§4) Experimental results were analyzed using XLfit (IDBS) for 4-parameter nonlinear fitting analysis to provide the IC50 value for each tested compound (Table 1).

Assay [3] relates to IL-17AF-induced IL-17 signaling pathway. Put plainly: Inhibition of IL-17AF-induced IL-17 signaling pathway. Format: cell-based. As to conditions: Homo sapiens; IL-17AF used instead of IL-17AA; read-out: IC50 for Inhibiting IL-AF Signaling.
Description: as §2, §3, §1, §4
Example 44. Inhibition of IL-17AF-Induced IL-17 Signaling Pathway
The same experimental procedure to Example […] was followed where IL-17AF was used instead of IL-17AA.

As to `CCn1nccc1C(=O)N[C@H](C(=O)Nc1ccc([C@H](C)[C@@H](NC(=O)CO)c2ncnn2CC2CC2)cc1F)C(C1CC1)C1CC1` [Compound 49, N-((S)-1,1-dicyclopropyl-3-((4-((1R,2S)-1-(1-(cyclopropylmethyl)-1H-1,2,4-triazol-5-yl)-1-(2-hydroxyacetamido)propan-2-yl)-2-fluorophenyl)amino)-3-oxopropan-2-yl)-1-ethyl-1H-pyrazole-5-carboxamide], the IC50 in assay [1] is 28 nM; in assay [2], 93 nM; in assay [3] it was 87 nM.

Take `Cc1nonc1C(=O)N[C@H](C(=O)Nc1ccc([C@H](C)[C@@H](NC(=O)CC#N)c2ncnn2CC2CC2)cc1F)C(C1CC1)C1CC1` [Compound 70, N-((S)-1-((4-((1R,2S)-1-(2-cyanoacetamido)-1-(1-(cyclopropylmethyl)-1H-1,2,4-triazol-5-yl)propan-2-yl)-2-fluorophenyl)amino)-3,3-dicyclopropyl-1-oxopropan-2-yl)-4-methyl-1,2,5-oxadiazole-3-carboxamide]: the figures for the IC50 in assay [1], in assay [2] and in assay [3] were 3.4 nM, 7.5 nM and 7.3 nM, respectively.

With `CCC(=O)N[C@@H](c1ncnn1CC1CC1)[C@@H](C)c1ccc(NC(=O)[C@@H](NC(=O)c2nsnc2C)C(C2CC2)C2CC2)c(F)c1` [Compound 74, N-((S)-1,1-dicyclopropyl-3-((4-((1R,2S)-1-(1-(cyclopropylmethyl)-1H-1,2,4-triazol-5-yl)-1-propionamidopropan-2-yl)-2-fluorophenyl)amino)-3-oxopropan-2-yl)-4-methyl-1,2,5-thiadiazole-3-carboxamide], the figures for the IC50 in assay [1], in assay [2] and in assay [3] were 5.4 nM, 31 nM and 61 nM, respectively.

For the compound `CCn1nccc1C(=O)N[C@H](C(=O)Nc1ccc([C@H](C)[C@@H](NC(C)=O)c2nncn2CC2CC2)cc1F)C(C1CC1)C1CC1` [Compound 2, N-((S)-1-((4-((1R,2S)-1-acetamido-1-(4-(cyclopropylmethyl)-4H-1,2,4-triazol-3-yl)propan-2-yl)-2-fluorophenyl)amino)-3,3-dicyclopropyl-1-oxopropan-2-yl)-1-ethyl-1H-pyrazole-5-carboxamide], the IC50 in assay [1] was determined as 12 nM; in assay [2] it was 50 nM; in assay [3], 99 nM.

As for `CCn1nccc1C(=O)N[C@H](C(=O)Nc1ccc([C@H](C)[C@@H](NC(=O)COC)c2nnc(C)s2)cc1F)C(C1CC1)C1CC1` [Compound 17, N-((S)-1,1-dicyclopropyl-3-((2-fluoro-4-((1R,2S)-1-(2-methoxyacetamido)-1-(5-methyl-1,3,4-thiadiazol-2-yl)propan-2-yl)phenyl)amino)-3-oxopropan-2-yl)-1-ethyl-1H-pyrazole-5-carboxamide], the figures for the IC50 in assay [1], in assay [2] and in assay [3] were 442 nM, 85 nM and 251 nM, respectively.

Take `COCC(=O)N[C@@H](c1ncnn1CC1CC1)[C@@H](C)c1ccc(NC(=O)[C@@H](NC(=O)c2ccnn2C)C(C2CC2)C2CC2)c(F)c1` [Compound 53, N-((S)-1,1-dicyclopropyl-3-((4-((1R,2S)-1-(1-(cyclopropylmethyl)-1H-1,2,4-triazol-5-yl)-1-(2-methoxyacetamido)propan-2-yl)-2-fluorophenyl)amino)-3-oxopropan-2-yl)-1-methyl-1H-pyrazole-5-carboxamide]: the figures for the IC50 in assay [1], in assay [2] and in assay [3] were 7.4 nM, 5.6 nM and 16 nM, respectively.

For the compound `COCC(=O)N[C@@H](c1nncn1CC1CC1)[C@@H](C)c1ccc(NC(=O)[C@@H](NC(=O)C(F)(F)c2ccc(OC)nc2)C(C2CC2)C2CC2)c(F)c1` [Compound 7, (S)-3,3-dicyclopropyl-N-(4-((1R,2S)-1-(4-(cyclopropylmethyl)-4H-1,2,4-triazol-3-yl)-1-(2-methoxyacetamido)propan-2-yl)-2-fluorophenyl)-2-(2,2-difluoro-2-(6-methoxypyridin-3-yl)acetamido)propanamide], the IC50 in assay [1] was 5.2 nM; in assay [2], 3.9 nM; in assay [3], 8.9 nM.

Consider `CCn1nccc1C(=O)N[C@H](C(=O)Nc1ccc([C@H](C)[C@@H](NC(=O)COC)c2nncn2CC2CC2)cc1F)C(C1CC1)C1CC1` [Compound 3, N-((S)-1,1-dicyclopropyl-3-((4-((1R,2S)-1-(4-(cyclopropylmethyl)-4H-1,2,4-triazol-3-yl)-1-(2-methoxyacetamido)propan-2-yl)-2-fluorophenyl)amino)-3-oxopropan-2-yl)-1-ethyl-1H-pyrazole-5-carboxamide], for which the IC50 was 7.3 nM in assay [1], 4.1 nM in assay [2] and 25 nM in assay [3].

With `CC(=O)N[C@@H](c1nncn1CC1CC1)[C@@H](C)c1ccc(NC(=O)[C@@H](NC(=O)c2ccnn2C(C)C)C(C2CC2)C2CC2)c(F)c1` [Compound 22, N-((S)-1-((4-((1R,2S)-1-acetamido-1-(4-(cyclopropylmethyl)-4H-1,2,4-triazol-3-yl)propan-2-yl)-2-fluorophenyl)amino)-3,3-dicyclopropyl-1-oxopropan-2-yl)-1-isopropyl-1H-pyrazole-5-carboxamide], the IC50 in assay [1] was 13 nM; in assay [2], 28 nM; in assay [3] it was 46 nM.

For `CCCn1ncnc1[C@H](NC(=O)COC)[C@@H](C)c1ccc(NC(=O)[C@@H](NC(=O)c2ccnn2CC)C(C2CC2)C2CC2)c(F)c1` [Compound 31, N-((S)-1,1-dicyclopropyl-3-((2-fluoro-4-((1R,2S)-1-(2-methoxyacetamido)-1-(1-propyl-1H-1,2,4-triazol-5-yl)propan-2-yl)phenyl)amino)-3-oxopropan-2-yl)-1-ethyl-1H-pyrazole-5-carboxamide], the IC50 in assay [1] was 11 nM; in assay [2], 6.9 nM; in assay [3], 13 nM.

`CCn1nccc1C(=O)N[C@H](C(=O)Nc1ccc([C@H](C)[C@@H](NC(=O)COC)c2nncn2CC23CC(F)(C2)C3)cc1F)C(C1CC1)C1CC1` [Compound 23, N-((S)-1,1-dicyclopropyl-3-((2-fluoro-4-((1R,2S)-1-(4-((3-fluorobicyclo[1.1.1]pentan-1-yl)methyl)-4H-1,2,4-triazol-3-yl)-1-(2-methoxyacetamido)propan-2-yl)phenyl)amino)-3-oxopropan-2-yl)-1-ethyl-1H-pyrazole-5-carboxamide]: the IC50 in assay [1] was determined as 21 nM; in assay [2], 25 nM; in assay [3], 91 nM.

With `[2H]C([2H])([2H])OCC(=O)N[C@@H](c1ncnn1CC1CC1)[C@@H](C)c1ccc(NC(=O)[C@@H](NC(=O)c2nonc2C)C(C2CC2)C2CC2)c(F)c1` [Compound 58, N-((S)-1,1-dicyclopropyl-3-((4-((1R,2S)-1-(1-(cyclopropylmethyl)-1H-1,2,4-triazol-5-yl)-1-(2-(methoxy-d3)acetamido)propan-2-yl)-2-fluorophenyl)amino)-3-oxopropan-2-yl)-4-methyl-1,2,5-oxadiazole-3-carboxamide], the IC50 in assay [1] worked out at 1.4 nM; in assay [2] it was 5 nM; in assay [3], 3.8 nM.
